Results published in PubChem BioAssay AID618 (Sanford-Burnham Center for Chemical Genomics, 2007).
Calls of active or inactive are those of the source. The rule behind the calls is not given here.

The compounds below were run on MT1-MMP promoter luciferase reporter cells, luminescence (assay: inhibitors of MT1-MMP promoter transcription, cell-based, luciferase reporter, luminescence (AID 618);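 note: actives suppress MT1-MMP promoter-driven transcription so potencies describe inhibitors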).
For Cc1ccoc1C(=O)Nc1ccc(CC(=O)O)cc1, the EC50 was 0.42 µM. Compound Clc1c(CSc2nc3ccccc3o2)nc2ccccn12 has an EC50 of 12.1 µM. CC(C)C(=O)Nc1ccc(NC(=O)c2ccccn2)cn1 was tested, and the EC50 was 6.27 µM. Compound Cc1cc(-c2csc(N)n2)c(C)n1CCC(C)C has an EC50 of 39.9 µM. With O=C(N/N=C/c1ccc([N+](=O)[O-])s1)c1ccccc1Br the EC50 was 2.8 µM. Cc1c(C(=O)NC2=NCCS2)oc2ccccc12 showed an EC50 of 9.29 µM. Compound Oc1c(CN2CCCCC2)cc(COCc2ccccc2)c2cccnc12 has an EC50 of 6.94 µM. Compound Cc1ccc2nc(-c3cc(N)cc(N)c3)oc2c1 has an EC50 of 1.57 µM. CCN(CC)c1ccc2cc(NC(=O)CCC(=O)O)c(=O)oc2c1 was tested, and the EC50 was 0.67 µM. Compound Cc1cc(C(=O)CN2C(=O)c3ccccc3S2(=O)=O)c(C)n1CC1CCCO1 (stereo not given) has an EC50 of 0.11 µM. Nc1ccc2oc(-c3ccc4nc[nH]c4c3)nc2c1 was tested, and the EC50 was 4.29 µM. Compound COCCn1c(C)cc(C(=O)CSc2nnc3ccccn23)c1C has an EC50 of 3.63 µM. In the case of CC(C)(C)c1ccc(-c2noc(CCC(N)=O)n2)cc1, the EC50 is reported as 0.13 µM. Cc1ccc(-c2nc(N/N=C/c3ccncc3)c3ccccc3n2)cc1 was tested, and the EC50 was 0.57 µM. Compound N#Cc1cc2c(nc1SCC(=O)Nc1nccs1)CCCCC2 has an EC50 of 7.77 µM. In the case of O=C1C(c2ccnc3ccccc23)=C(O)c2ccccc21, the EC50 is reported as > 50 µM (inactive). In the case of CCOC(=O)/C(=C\c1ccccc1)C(=O)c1cc(C(C)=O)c(Nc2ccccc2)s1, the EC50 is reported as 14.4 µM. In the case of CC(=O)Nc1ccc(OC(=O)N2CCCCC2)cc1, the EC50 is reported as > 50 µM (inactive). Work on Cc1cc(C)c(C)c(S(=O)(=O)Nc2ccccc2C(=O)NCCCn2ccnc2)c1C yielded an EC50 of 1.82 µM. Work on O=C(COc1ccc(CO)cc1Cl)Nc1ccc(F)cc1 yielded an EC50 of 3.02 µM. Clc1ccc(-c2nnc(N3CCCC3)nn2)cc1 was tested, and the EC50 was 6.38 µM. O=C1C(N2CCOCC2)=C(n2nnc3ccccc32)C(=O)c2ccccc21 was tested, and the EC50 was 10.5 µM. For CC(C)c1ccc(-c2nnn(CCC(=O)O)n2)cc1, the EC50 was 1.04 µM. Cc1ccc(-c2nc3cc(NC(=O)C(C)C)ccc3o2)cc1 showed an EC50 of 5.62 µM. Work on O=C(Nc1ccc(N2CCCC2)c(Cl)c1)c1ccco1 yielded an EC50 of 2.68 µM. CC(C)(C)C(=O)N1CCc2cc(-c3csc(N)n3)ccc21 was tested, and the EC50 was 1.36 µM. CCCCCc1ccc(-c2ccc(C(=O)O)cc2)nc1 gave an EC50 of 3.53 µM. O=c1c2sc(-c3ccccc3)cc2nc2n1CCC2 was tested, and the EC50 was 4.05 µM. N#Cc1c(NC(=O)CSc2ncn[nH]2)sc2c1CCCC2 gave an EC50 of 0.73 µM. For O=C(Nc1ccc(N2CCCCC2)cc1)c1ccccc1, the EC50 was 3.57 µM. In the case of CNc1nnc(-c2ccc(N(C)C)cc2)s1, the EC50 is reported as 5.1 µM. Compound c1ccc(-c2ccc(-c3nc(-c4ccncc4)no3)cc2)cc1 has an EC50 of 9.02 µM. With COc1cc(SC)ccc1C(=O)Nc1ccc2c(c1)OCCO2 the EC50 was 13.2 µM. COc1ccc(O)c(C(=O)CC(=O)c2ccc(F)cc2)c1 showed an EC50 of 0.57 µM. With Cc1ccc(NC(=O)N2CCc3ccccc32)cc1 the EC50 was 3.38 µM. With c1ccc(-c2nc(-c3ccccn3)no2)cc1 the EC50 was 8.19 µM. COc1cccc(-c2nc3cc(C)ccc3o2)c1 gave an EC50 of 4.41 µM. Work on O=C(CSc1nnc(-c2ccccc2)o1)Nc1ccccc1F yielded an EC50 of 0.82 µM. Cc1ccc(C(=O)N/N=C/c2ccc([N+](=O)[O-])s2)cc1 was tested, and the EC50 was 0.3 µM. For COc1ccc(C(=O)Nn2c(SCC(=O)NCc3ccccc3)nc3ccccc3c2=O)cc1, the EC50 was 1.29 µM. Compound COc1ccc(-n2ncc3c(NCC(C)C)ncnc32)cc1 has an EC50 of 6.31 µM. With O=C1c2ccccc2C(=O)C1c1ccnc2ccccc12 the EC50 was 1.02 µM. In the case of Cc1cc(C(=O)Nc2cccc(C(=O)O)c2)oc1C, the EC50 is reported as 0.82 µM. In the case of COCCn1c(C)cc(C2=NNC(=Nc3ccccc3F)SC2)c1C, the EC50 is reported as 3.04 µM. Work on COC(=O)c1nn(-c2ccc(-c3ccccc3)cc2)cc1O yielded an EC50 of 1.48 µM.
